Data as given in patent US20220402862A1 (Intellia Therapeutics, Inc., priority 2019, published 2022).

Tests used:
Assay type in all cases: physicochemical
[1] = RNA encapsulation efficiency of LNPs (Ribogreen fluorescence assay); conditions: LNP, sg:mRNA 1:1, N/P about 6, amine lipid/DSPC/cholesterol/PEG-2k-DMG 50/9/38/3; Table 2, Experiments 2-20
Experimental: A fluorescence-based assay (Ribogreen®, ThermoFisher Scientific) is used to determine total RNA concentration and free RNA. Encapsulation efficiency is calculated as (Total RNA-Free RNA)/Total RNA. LNP samples are diluted appropriately with 1× TE buffer containing 0.2% Triton-X 100 to determine total RNA or 1× TE buffer to determine free RNA. Standard curves are prepared by utilizing the starting RNA solution used to make the compositions and diluted in 1× TE buffer +/− 0.2% Triton-X 100. Diluted RiboGreen® dye (according to the manufacturer's instructions) is then added to each of the standards and samples and allowed to incubate for approximately 10 minutes at room temperature, in the absence of light. A SpectraMax M5 Microplate Reader (Molecular Devices) is used to read the samples with excitation, auto cutoff and emission wavelengths set to 488 nm, 515 nm, and 525 nm respectively. Total RNA and free RNA are determined from the appropriate standard curves.
Encapsulation efficiency is calculated as (Total RNA-Free RNA)/Total RNA. The same procedure may be used for determining the encapsulation efficiency of a DNA-based cargo component. In a fluorescence-based assay, for single-strand DNA Oligreen Dye may be used, and for double-strand DNA, Picogreen Dye. Alternatively, the total RNA concentration can be determined by a reverse-phase ion-pairing (RP-IP) HPLC method. Triton X-100 is used to disrupt the LNPs, releasing the RNA. The RNA is then separated from the lipid components chromatographically by RP-IP HPLC and quantified against a standard curve using UV absorbance at 260 nm.

[2] = Dynamic light scattering of LNPs: Z-average diameter, number average diameter, PDI; conditions: LNP, sg:mRNA 1:1, N/P about 6, 50/9/38/3; Table 2, Experiments 2-20
Experimental: Dynamic Light Scattering (“DLS”) is used to characterize the polydispersity index (“PDI”) and size of the LNPs of the present disclosure. DLS measures the scattering of light that results from subjecting a sample to a light source. PDI, as determined from DLS measurements, represents the distribution of particle size (around the mean particle size) in a population, with a perfectly uniform population having a PDI of zero.
LNP compositions are analyzed for average particle size, polydispersity index (PDI), total RNA content, encapsulation efficiency of RNA, and zeta potential. LNP compositions may be further characterized by lipid analysis, AF4-MALS, NTA, and/or cryo-EM. Average particle size and polydispersity are measured by dynamic light scattering (DLS) using a Malvern Zetasizer DLS instrument or Wyatt NanoStar. LNP samples were diluted with PBS buffer prior to being measured by DLS. Z-average diameter which is an intensity-based measurement of average particle size is reported along with number average diameter and PDI. A Malvern Zetasizer or Wyatt NanoStar instrument is also used to measure the zeta potential of the LNP. Samples are diluted 1:17 (50 μL into 800 μL) in 0.1× PBS, pH 7.4 prior to measurement.

[3] = pKa measurement of unformulated amine lipid (fluorescence, method of Jayaraman et al.); conditions: 100 μM in 0.1 M phosphate buffer, pH 2.0-12.0
Experimental: The pKa of each amine lipid was determined according to the method in Jayaraman, et al. (Angewandte Chemie, 2012) with the following adaptations. […] Lipid was diluted to 100 μM in 0.1 M phosphate buffer (Boston Bioproducts) where the pH ranged from 2.0-12.0. Fluorescence intensity was measured using excitation and emission wavelengths of 321 nm and 448 nm.

Row | Compound | Encapsulation (%) [1] [%] | Number mean (nm) [2] [nm] | PDI [2] | Z-avg (nm) [2] [nm] | pKa [3]
1 | CCCCC/C=C\C/C=C\CCCCCCCC(=O)OCC(COCCCN(CC)CC)COC(=O)CCC(OCCCCCCCC)OCCCCCCCC (stereo not drawn) [Compound 99, 3-((4,4-bis(octyloxy)butanoyl)oxy)-2-((3-(diethylamino)propoxy)methyl)propyl (9Z,12Z)-octadeca-9,12-dienoate] | 99 | 74 | 0.003 | 89 | 7.1
2 | CCCCCCCCOC(CCC(=O)OCC(COC(=O)CCCCCCCCCCC(=O)OCCCCC)COC(=O)OCCCN(CC)CC)OCCCCCCCC (stereo not drawn) [Compound 60, 1-(3-((4,4-bis(octyloxy)butanoyl)oxy)-2-((((3-(diethylamino)propoxy)carbonyl)oxy)methyl)propyl) 12-pentyl dodecanedioate] | 97 | 84.46 | 0.022 | 104.2 | 6.38
3 | CCCCCC/C=C\COC(=O)CCCCCCCCCCCC(=O)OCC(COC(=O)CCC(OCCCCCCCC)OCCCCCCCC)COC(=O)OCCCN(CC)CC (stereo not drawn) [Compound 70, (Z)-1-(3-((4,4-bis(octyloxy)butanoyl)oxy)-2-((((3-(diethylamino)propoxy)carbonyl)oxy)methyl)propyl) 13-(non-2-en-1-yl) tridecanedioate] | 98 | 66.78 | 0.017 | 83.47 | 6.02
4 | CCCCC/C=C\C/C=C\CCCCCCCC(=O)OCC(COCCN(CC)CC)COC(=O)CCC(OCCCCCCCC)OCCCCCCCC (stereo not drawn) [Compound 98, 3-((4,4-bis(octyloxy)butanoyl)oxy)-2-((2-(diethylamino)ethoxy)methyl)propyl (9Z,12Z)-octadeca-9,12-dienoate] | 99 | 57 | 0.02 | 70 | 6.4
5 | CCCCCCCCOC(CCC(=O)OCC(COC(=O)CCCCCCCC(=O)OCCCCCC)COC(=O)OCCCN(CC)CC)OCCCCCCCC (stereo not drawn) [Compound 57, 1-(3-((4,4-bis(octyloxy)butanoyl)oxy)-2-((((3-(diethylamino)propoxy)carbonyl)oxy)methyl)propyl) 9-hexyl nonanedioate] | 89 | 83.41 | 0.011 | 102 | 6.59
6 | CCCCCCCCOC(=O)CCCCCCCC(=O)OCC(COC(=O)CCC(OCCCCCCCC)OCCCCCCCC)COC(=O)OCCCN(CC)CC (stereo not drawn) [Compound 58, 1-(3-((4,4-bis(octyloxy)butanoyl)oxy)-2-((((3-(diethylamino)propoxy)carbonyl)oxy)methyl)propyl) 9-octyl nonanedioate] | 95 | 72.42 | 0.029 | 89.07 | 6.4
7 | CCCCC/C=C\C/C=C\CCCCCCCC(=O)OCC(COC(=O)CCC(OCCCCCCCC)OCCCCCCCC)OC(=O)OCCCN(CC)CC (stereo not drawn) [Compound 97, 3-((4,4-bis(octyloxy)butanoyl)oxy)-2-(((3-(diethylamino)propoxy)carbonyl)oxy)propyl (9Z,12Z)-octadeca-9,12-dienoate] | 98 | 55.14 | 0.037 | 68.66 | 6.09
8 | CCCCCC/C=C\COC(=O)CCCCCCCCCC(=O)OCC(COC(=O)CCC(OCCCCCCCC)OCCCCCCCC)COC(=O)OCCCN(CC)CC (stereo not drawn) [Compound 69, (Z)-1-(3-((4,4-bis(octyloxy)butanoyl)oxy)-2-((((3-(diethylamino)propoxy)carbonyl)oxy)methyl)propyl) 11-(non-2-en-1-yl) undecanedioate] | 98 | 68.12 | 0.026 | 85.11 | 6.18

Further lines, results first:

Row | Encapsulation (%) [1] [%] | Number mean (nm) [2] [nm] | PDI [2] | Z-avg (nm) [2] [nm] | pKa [3] | Compound
9 | 98 | 64.05 | 0.019 | 79.37 | 6.09 | CCCCC/C=C\C/C=C\CCCCCCCC(=O)OCC(COC(=O)CCCC(=O)OC(CCCCCCCC)CCCCCCCC)COC(=O)OCCCN(CC)CC (stereo not drawn) [Compound 63, 3-(((3-(diethylamino)propoxy)carbonyl)oxy)-2-((((9Z,12Z)-octadeca-9,12-dienoyl)oxy)methyl)propyl heptadecan-9-yl glutarate]
10 | 98 | 55.76 | 0.034 | 70.19 | 5.88 | CCCCC/C=C\C/C=C\CCCCCCCC(=O)OCC(COC(=O)OCCCN(CC)CC)COC(=O)C(CCCCCC)CCCCCCCC (stereo not drawn) [Compound 65, 3-(((3-(diethylamino)propoxy)carbonyl)oxy)-2-(((2-hexyldecanoyl)oxy)methyl)propyl (9Z,12Z)-octadeca-9,12-dienoate]
11 | 98 | 59.35 | 0.044 | 73.46 | 6.03 | CCCCC/C=C\C/C=C\CCCCCCCC(=O)OCC(COC(=O)CCCCC(OCCCCCCCC)OCCCCCCCC)COC(=O)OCCCN(CC)CC (stereo not drawn) [Compound 62, 3-((6,6-bis(octyloxy)hexanoyl)oxy)-2-((((3-(diethylamino)propoxy)carbonyl)oxy)methyl)propyl (9Z,12Z)-octadeca-9,12-dienoate]
12 | 99 | 56.56 | 0.025 | 69.85 | 6.19 | CCCCC/C=C\C/C=C\CCCCCCCC(=O)OCC(COC(=O)CCCC(CCCCCCC)CCCCCCC)COC(=O)OCCCN(CC)CC (stereo not drawn) [Compound 67, 3-(((3-(diethylamino)propoxy)carbonyl)oxy)-2-(((5-heptyldodecanoyl)oxy)methyl)propyl (9Z,12Z)-octadeca-9,12-dienoate]
13 | 98 | 44.03 | 0.071 | 58.54 | 6.06 | CCCCC/C=C\C/C=C\CCCCCCCC(=O)OCC(COC(=O)CC(CCCCCCCC)CCCCCCCC)COC(=O)OCCCN(CC)CC (stereo not drawn) [Compound 66, 3-(((3-(diethylamino)propoxy)carbonyl)oxy)-2-(((3-octylundecanoyl)oxy)methyl)propyl (9Z,12Z)-octadeca-9,12-dienoate]
14 | 98 | 69.25 | 0.032 | 85.16 | 6.08 | CCCCC/C=C\C/C=C\CCCCCCCC(=O)OCC(COC(=O)CCCCCC(=O)OC(CCCCCCCC)CCCCCCCC)COC(=O)OCCCN(CC)CC (stereo not drawn) [Compound 64, 1-(3-(((3-(diethylamino)propoxy)carbonyl)oxy)-2-((((9Z,12Z)-octadeca-9,12-dienoyl)oxy)methyl)propyl) 7-(heptadecan-9-yl) heptanedioate]
15 | 98 | 60.04 | 0.008 | 72.71 | 6.1 | CCCCC/C=C\C/C=C\CCCCCCCC(=O)OCC(COC(=O)CCCCCC(CCCCCC)CCCCCC)COC(=O)OCCCN(CC)CC (stereo not drawn) [Compound 68, 3-(((3-(diethylamino)propoxy)carbonyl)oxy)-2-(((7-hexyltridecanoyl)oxy)methyl)propyl (9Z,12Z)-octadeca-9,12-dienoate]
